We go through 33 compounds from PubChem BioAssay (NCI).

“And” between values parts separate entries of the source, which are not always exact repeats. Equal entries are not always repeated.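 Cultured in 96-well plates, cells were exposed to test compound for 48 hours across five concentrations. GI50 is the concentration that inhibits growth by half. The concentration for full growth arrest is given as TGI.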

The experiment relates to MDA-MB-468 breast. Kind of experiment: NCI tumour cell line growth inhibition, 48 h.
For the compound `Cn1cc(-c2nonc2-c2cn(C)c3ccc(F)cc23)c2ccccc21`, the GI50 is 0.515 µM and the TGI is more than 84 µM.

Take `Clc1ccc(CNc2ccc3nc(CCC4CCCCC4)[nH]c3c2)cc1`: the GI50 is 1.57 µM and the TGI came to 3.47 µM.

For `COc1ccc(NC(=O)Nc2ccccc2CNc2nc(Nc3ccc(OCCN4CCCC4)cc3)ncc2Cl)cc1`, the GI50 is 0.894 µM and the TGI is 1.72 µM.

As to `COc1cc(C2CC(c3cccc(Nc4ccnc5cc(Cl)ccc45)c3)=NN2C=O)cc(OC)c1OC` (stereo unspecified), the GI50 is 0.293 µM and the TGI is 1.07 µM.

Consider `O=C1NC(=NCc2ccccc2Br)S/C1=C\c1ccc2ncccc2c1`, for which the GI50 is 4.22 µM and the TGI was more than 25 µM.

Take `C[C@H](NC(=O)c1c(N)nn2cccnc12)c1cc2cccc(C#Cc3cnn(C)c3)c2c(=O)n1-c1ccccc1`: the GI50 was 0.843 µM and 1.46 µM; the TGI was 4.55 µM and 9.08 µM.

As to `C/C(=C1\SC(=NCc2cccs2)NC1=O)c1ccc2ncccc2c1`, the GI50 is 7.13 µM and the TGI is more than 25 µM.

On to `O=C1C=CC=C[C@@H]2C(C3OCCO3)CC[C@H]12.[C-]#[O+].[C-]#[O+].[C-]#[O+].[Fe]` (stereo partly specified), for which the GI50 is 35.2 µM and the TGI was more than 100 µM.

Turning to `COc1cc(-c2cc(/C=C3\C(=O)Nc4cc(Cl)ccc43)[nH]n2)cc(OC)c1OC`, the GI50 was 3.17 µM and the TGI stood at 18.2 µM.

Turning to `Clc1ccc(Nc2nnc(CNc3ccccc3)c3ccccc23)cc1`, the GI50 was 1.9 µM and the TGI stood at 11.5 µM.

On to `COc1cccc2c1C(=O)c1c(O)c3c(c(O)c1C2=O)C[C@@](O)(C(C)=O)C[C@@H]3O[C@H]1C[C@H](N)[C@H](O)[C@H](C)O1`, for which the GI50 is 0.0716 µM and the TGI came out at 0.221 µM.

For `CSc1nc(N)cc(Oc2ccc(-c3nc(Nc4cccc(C(F)(F)F)c4)n[nH]3)cc2)n1`, the GI50 is 0.36 µM and the TGI turned out to be 2.66 µM.

Take `COc1ccc(C2C(C#N)=C(N)Oc3c2sc2c(F)cccc32)cc1` (stereo unspecified): the GI50 is 1.34 µM and the TGI came to 10.6 µM.

`O=C1Nc2ccccc2/C1=C\c1c[nH]c2ccc(Br)cc12`: the GI50 is 1.62 µM and the TGI is 3.76 µM.

As to `CCN1C(C)(C)CC(Oc2ccc(C(=O)Nc3ccc(NC(=O)Nc4cc(C(C)(C)C)on4)cc3)nc2)CC1(C)C`, the GI50 was 3.21 µM and the TGI was 8.95 µM.

Turning to `Oc1c(I)cc(I)cc1CNCCN(Cc1ccccn1)Cc1ccccn1`, the GI50 was 1.67 µM and the TGI was found to be 4.85 µM.

`Cc1ncc(C(=O)Nc2ccc(CN3CCN(C)CC3)c(C(F)(F)F)c2)cc1C#Cc1c(N)ncc2ccc(F)cc12`: the GI50 was 2.82 µM and the TGI came to 12 µM.

Take `O=C1C(Br)=CC2C1C1C3CCC3C2(Br)C12OCCO2` (stereo unspecified): the GI50 is 1.37 µM and the TGI came out at 4.21 µM.

As to `O=C(NCCCN1CCC(N2CCCCC2)CC1)C1=Cc2cc(Br)ccc2OC1`, the GI50 is 3.15 µM and the TGI worked out at 12.6 µM.

With `Cc1cc(Nc2nc(-c3ccc(F)cc3)nc3ccccc23)n[nH]1`, the GI50 is 2.01 µM and the TGI worked out at 11.3 µM.

As to `O=C(OCc1nc2nc(Cl)nc(N3CCOCC3)c2[nH]1)n1ccnc1`, the GI50 was 1.85 µM and the TGI is 3.54 µM.

With `C#C[C@]1(O)CC[C@H]2[C@@H]3CC=C4c5sc(Nc6ccc(OC)nc6)nc5CC[C@]4(C)[C@H]3CC[C@@]21C`, the GI50 was 1.46 µM and the TGI was found to be 3.53 µM.

Take `O=c1oc2ccc(Br)cc2c(=O)n1-c1ccc(Br)cc1F`: the GI50 was 0.819 µM and the TGI is 4.32 µM.

For `Cc1ccccc1N1CCN(C2=C(Cl)C(=O)c3ncccc3C2=O)CC1`, the GI50 was 1.6 µM and the TGI was determined as 3.18 µM.

Regarding `CCCN1CCN(c2ccc3nc(-c4ccc5nc(-c6ccc(C(F)(F)F)cc6)[nH]c5c4)[nH]c3c2)CC1`, the GI50 was 1.78 µM and the TGI is 3.39 µM.

Turning to `Cn1cc(C2=C(Oc3ccccc3)C(=O)NC2=O)c2ccccc21`, the GI50 is more than 25 µM and the TGI is more than 25 µM.

Consider `C=CCNCCN1C(=O)c2ccc3c4c(ccc(c24)C1=O)C(=O)N(CCNCC=C)C3=O`, for which the GI50 is 0.466 µM and the TGI turned out to be 1.16 µM.

With `CN1N=C(N)c2cn(C3OC(COP(=O)(O)O)C(O)C3O)c3ncnc1c23` (stereo unspecified), the GI50 is 0.205 µM and the TGI came out at 3.05 µM.

Turning to `CS(=O)(=O)CCN(CC#N)Cc1ccc(-c2ccc3ncnc(Nc4ccc(OCc5cccc(F)c5)c(Cl)c4)c3c2)o1`, the GI50 is 0.0767 µM and the TGI is 1.09 µM.

For `CCN(CC)c1ccc(/C=N/NC(=O)c2ccc(S(C)(=O)=O)cc2)c(O)c1`, the GI50 was 0.25 µM and the TGI was 1.27 µM.

For `N#C/C(=C/NC(=S)NCc1ccccc1)C(N)=O`, the GI50 was more than 100 µM and the TGI was more than 100 µM.

With `O=c1[nH]cnc2c1ccn2C1OC(CO)C(O)C1O` (stereo unspecified), the GI50 was 0.762 µM and the TGI came out at 3.73 µM.

As for `CCn1c(-c2nonc2N)nc2c(C#CC(C)(C)O)nc(CN3CCCC3)cc21`, the GI50 was 4.15 µM and the TGI is more than 25 µM.
